Reference: patent US7109186B2 (Bristol-Myers Squibb Company, priority 2002, dated 2006)

Assays:
[1] = target: T1, HIV-integrase (Human immunodeficiency virus type 1 group M subtype B, UniProt P04585); test: HIV integrase SPA integration assay (biotin-labeled substrate DNA on streptavidin SPA beads, P33-labeled target DNA); assay type: biochemical; settings: percent inhibition of HIV-integrase in the presence of 20 μM of compound
T1 construct: 0.26 ng of recombinant integrase was incubated with the beads for 90 min at 37 C
Experimental: For each reaction, 5 pmole of biotin labeled substrate DNA was bound to 100 ug of Streptavidin coated PVT SPA beads (Amersham Pharmacia Biotech). 0.26 ng of recombinant integrase was incubated with the beads for 90 min at 37 C. Unbound enzyme was removed by washing the complex followed by addition of inhibitors and 0.1 fmol of P33 labeled target DNA. Reaction was stopped by adding EDTA to a final concentration of 10 mM. Samples were counted in TopCountNXT (Packard) and the CPM was used as a measure of integration. Reaction condition was as described in A. Engelman and R. Craigie, J. Virol. 69, 5908–5911 (1995). The sequences of substrate and target DNA were described in Nucleic Acid Research 22, 1121–1122 (1994).

SMILES	inhibition at 20 µM [1] [%]	melting point
CON(C(=O)C1=C(O)C(=O)N(C)C1)C(C)c1ccc(F)cc1 (stereo not shown) [Compound 69, 4-Hydroxy-1-methyl-5-oxo-2,5-dihydro-1H-pyrrole-3-carboxylic acid [1-(4-fluoro-phenyl)-ethyl]-methoxy-amide]	97	136 to 138 °C
CON(Cc1ccc(C#N)cc1)C(=O)C1=C(O)C(=O)N(C)C1 [Compound 62, 4-Hydroxy-1-methyl-5-oxo-2,5-dihydro-1H-pyrrole-3-carboxylic acid (4-cyano-benzyl)-methoxy-amide]	97.7	161 °C (dec.)
CN1CC(C(=O)N(Cc2ccc(F)cc2)OCC(=O)OC(C)(C)C)=C(O)C1=O [Compound 70]	99.8	128 to 130 °C
CON(Cc1ccccc1F)C(=O)C1=C(O)C(=O)N(C)C1 [Compound 50, 4-Hydroxy-1-methyl-5-oxo-2,5-dihydro-1H-pyrrole-3-carboxylic acid (2-fluoro-benzyl)-methoxy-amide]	92	147 °C (dec.)
CON(Cc1ccc(F)c(C)c1)C(=O)C1=C(O)C(=O)N(C)C1 [Compound 64, 4-Hydroxy-1-methyl-5-oxo-2,5-dihydro-1H-pyrrole-3-carboxylic acid (4-fluoro-3-methyl-benzyl)-methoxy-amide]	99.7	160 to 164 °C
CON(Cc1ccc(Cl)c(Cl)c1)C(=O)C1=C(O)C(=O)N(C)C1 [Compound 47, 4-Hydroxy-1-methyl-5-oxo-2,5-dihydro-1H-pyrrole-3-carboxylic acid (3,4-dichloro-benzyl)-methoxy-amide]	99.9	149 °C
CCON(Cc1ccc(F)cc1)C(=O)C1=C(O)C(=O)N(C)C1 [Compound 53, 4-Hydroxy-1-methyl-5-oxo-2,5-dihydro-1H-pyrrole-3-carboxylic acid ethoxy-(4-fluoro-benzyl)-amide]	99	113 to 114 °C
CC(C)CON(Cc1ccc(F)cc1)C(=O)C1=C(O)C(=O)N(C)C1 [Compound 58, 4-Hydroxy-1-methyl-5-oxo-2,5-dihydro-1H-pyrrole-3-carboxylic acid (4-fluoro-benzyl)-isobutoxy-amide]	99.5	96 to 97 °C
CON(Cc1ccc(C)cc1)C(=O)C1=C(O)C(=O)N(C)C1 [Compound 59, 4-Hydroxy-1-methyl-5-oxo-2,5-dihydro-1H-pyrrole-3-carboxylic acid methoxy-(4-methyl-benzyl)-amide]	99.9	150 to 152 °C
CN1CC(C(=O)N(Cc2ccc(F)cc2)c2ccc(Cl)c(Cl)c2)=C(O)C1=O [Compound 78, 4-Hydroxy-1-methyl-5-oxo-2,5-dihydro-1H-pyrrole-3-carboxylic acid (3,4-dichloro-phenyl)-(4-fluoro-benzyl)-amide]	99.9	195 °C (dec.)
CON(Cc1ccc(C(=O)O)cc1)C(=O)C1=C(O)C(=O)N(C)C1 [Compound 68, 4-{[(4-Hydroxy-1-methyl-5-oxo-2,5-dihydro-1H-pyrrole-3-carbonyl)-methoxy-amino]-methyl}-benzoic acid]	12	196 to 197 °C
CN(Cc1ccc(Cl)c(Cl)c1)C(=O)C1=C(O)C(=O)N(CCC(=O)O)C1 [Compound 18, 3-[4-[(3,4-dichloro-benzyl)-methyl-carbamoyl]-3-hydroxy-2-oxo-2,5-dihydro-pyrrol-1-yl]-propionic acid]	99.9	183 to 184 °C
CN1CC(C(=O)N(Cc2ccc(F)cc2)OCC(=O)O)=C(O)C1=O [Compound 71, [(4-Fluoro-benzyl)-(4-hydroxy-1-methyl-5-oxo-2,5-dihydro-1H-pyrrole-3-carbonyl)-aminooxy]-acetic acid]	99.9	147 to 150 °C
CN(Cc1ccc(Cl)c(Cl)c1)C(=O)C1=C(O)C(=O)N(C2CC2)C1 [Compound 14, 1-Cyclopropyl-4-hydroxy-5-oxo-2,5-dihydro-1H-pyrrole-3-carboxylic acid (3,4-dichloro-benzyl)-methyl-amide]	99.7	163 to 164 °C
CON(Cc1ccc(NC(C)=O)cc1)C(=O)C1=C(O)C(=O)N(C)C1 [Compound 63, 4-Hydroxy-1-methyl-5-oxo-2,5-dihydro-1H-pyrrole-3-carboxylic acid (4-acetylamino-benzyl)-methoxy-amide]	12	110 °C
CN(C)C(=O)CON(Cc1ccc(F)cc1)C(=O)C1=C(O)C(=O)N(C)C1 [Compound 72, 4-Hydroxy-1-methyl-5-oxo-2,5-dihydro-1H-pyrrole-3-carboxylic acid dimethylcarbamoylmethoxy-(4-fluoro-benzyl)-amide]	98.8	147 to 149 °C
CON(Cc1ccc(Cl)cc1)C(=O)C1=C(O)C(=O)N(C)C1 [Compound 51, 4-Hydroxy-1-methyl-5-oxo-2,5-dihydro-1H-pyrrole-3-carboxylic acid (4-chloro-benzyl)-methoxy-amide]	99.9	165 °C (dec.)
CON(Cc1ccc(F)c(F)c1)C(=O)C1=C(O)C(=O)N(C)C1 [Compound 54, 4-Hydroxy-1-methyl-5-oxo-2,5-dihydro-1H-pyrrole-3-carboxylic acid (3,4-difluoro-benzyl)-methoxy-amide]	99.9	146 to 147 °C
CN(Cc1ccc(Cl)c(Cl)c1)C(=O)C1=C(O)C(=O)N(CC(=O)O)C1 [Compound 20, {4-[(3,4-Dichloro-benzyl)-methyl-carbamoyl]-3-hydroxy-2-oxo-2,5-dihydro-pyrrol-1-yl}-acetic acid]	99.9	178 to 180 °C
CON(CCc1ccc(F)cc1)C(=O)C1=C(O)C(=O)N(C)C1 [Compound 52, 4-Hydroxy-1-methyl-5-oxo-2,5-dihydro-1H-pyrrole-3-carboxylic acid [2-(4-fluoro-phenyl)-ethyl]-methoxy-amide]	86	157 °C (dec.)
CON(Cc1cccc(F)c1)C(=O)C1=C(O)C(=O)N(C)C1 [Compound 49, 4-Hydroxy-1-methyl-5-oxo-2,5-dihydro-1H-pyrrole-3-carboxylic acid (3-fluoro-benzyl)-methoxy-amide]	98.5	119 °C (dec.)
CON(Cc1ccccc1C)C(=O)C1=C(O)C(=O)N(C)C1 [Compound 56, 4-Hydroxy-1-methyl-5-oxo-2,5-dihydro-1H-pyrrole-3-carboxylic acid methoxy-(2-methyl-benzyl)-amide]	88	153 to 154 °C
CON(Cc1ccc(F)cc1Cl)C(=O)C1=C(O)C(=O)N(C)C1 [Compound 74, 4-Hydroxy-1-methyl-5-oxo-2,5-dihydro-1H-pyrrole-3-carboxylic acid (2-chloro-4-fluoro-benzyl)-methoxy-amide]	97.8	152 to 155 °C
